In paper PMC8781192, “An In Silico and an In Vitro Inhibition Analysis of Glycogen Phosphorylase by Flavonoids, Styrylchromones, and Pyrazoles” (Nutrients, 2022):
Read-outs that look alike come from different tables or passages of the source.

How the values were obtained:
[1] = molecular target: T1, rabbit mGPa (Oryctolagus cuniculus, UniProt P00489); test: In vitro glycogen phosphorylase inhibition assay (direction of glycogen synthesis, colorimetric phosphate); assay type: biochemical; conditions: for inhibition at 50 µM: at 50 μM (highest concentration tested)
T1 construct: purchased Creative Enzymes
T1 sequence (P00489 2-843 limits assumed): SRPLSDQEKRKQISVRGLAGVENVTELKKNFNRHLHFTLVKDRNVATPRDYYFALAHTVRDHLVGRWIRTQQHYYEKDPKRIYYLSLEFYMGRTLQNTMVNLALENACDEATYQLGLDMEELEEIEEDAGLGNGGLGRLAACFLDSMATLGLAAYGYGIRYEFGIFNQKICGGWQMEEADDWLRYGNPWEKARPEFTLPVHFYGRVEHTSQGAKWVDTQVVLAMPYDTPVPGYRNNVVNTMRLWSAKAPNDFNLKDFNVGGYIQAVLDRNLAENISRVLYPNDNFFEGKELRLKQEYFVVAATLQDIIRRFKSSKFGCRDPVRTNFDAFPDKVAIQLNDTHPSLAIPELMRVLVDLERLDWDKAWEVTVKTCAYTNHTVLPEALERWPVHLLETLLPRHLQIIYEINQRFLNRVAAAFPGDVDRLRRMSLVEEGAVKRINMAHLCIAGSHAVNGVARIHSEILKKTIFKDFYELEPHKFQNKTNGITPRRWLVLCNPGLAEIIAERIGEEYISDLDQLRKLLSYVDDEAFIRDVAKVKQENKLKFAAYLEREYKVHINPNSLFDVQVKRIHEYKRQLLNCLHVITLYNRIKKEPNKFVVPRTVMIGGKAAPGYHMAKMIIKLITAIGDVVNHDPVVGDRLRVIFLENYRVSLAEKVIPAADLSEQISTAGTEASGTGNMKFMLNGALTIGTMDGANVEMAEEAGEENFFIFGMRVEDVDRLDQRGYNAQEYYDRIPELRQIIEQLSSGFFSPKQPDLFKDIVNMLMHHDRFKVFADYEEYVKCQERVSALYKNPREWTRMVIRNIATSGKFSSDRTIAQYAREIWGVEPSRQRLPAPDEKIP
Protocol: The GP activity was measured using a previously optimized and validated method. In each assay, GP activity was measured by the direction of glycogen synthesis, which involved monitoring the colorimetric determination of inorganic phosphate deriving from glucose 1-phosphate. […] The enzymatic reaction was then started with the addition of a 50 mM HEPES buffer solution, with a pH of 7.2, containing 100 mM KCl, 2.5 mM MgCl2, 0.25 mM glucose 1-phosphate, and 0.25 mg/mL glycogen incubated for 30 min at 37 °C. After this incubation time, the reagent for colorimetric phosphate quantitation, BIOMOL® Green, was added to the reaction mixture. The reaction was monitored in a microplate reader (Synergy HT, BioTek Instruments, Winooski, VT, USA) at 620 nm.

[2] = molecular target: T1, rabbit mGPa; test: In vitro effect of glucose on inhibitor potency (GPa inhibition with 0, 5, 10 mM glucose); assay type: biochemical; conditions: for IC50: mean ± SEM; for inhibition at 40 µM: at 40 μM (highest concentration tested), read-out: GPa inhibitory activity (%)
Protocol: The method was performed as described in Section 2.2, with slight modifications. […] The enzymatic reaction was then started with the addition of a 50 mM HEPES buffer solution with a pH of 7.2 containing 100 mM KCl, 2.5 mM MgCl2, 0.25 mM glucose 1-phosphate, and 0.25 mg/mL glycogen. This buffer was used without glucose, or it was enriched with 5 and 10 mM of glucose and was incubated for 30 min at 37 °C in the reaction mixture. After this incubation time, BIOMOL® Green was added, and the reaction was monitored in a microplate reader (Synergy HT, BioTek Instruments, Winooski, VT, USA) at 620 nm.

[3] = test system: GPb; set-up: method as in PMID 16317787; conditions: direction of glycogen breakdown; cited from earlier work
[4] = molecular target: T1, rabbit mGPa; set-up: method as in PMID 16317787; conditions: direction of glycogen breakdown; cited from earlier work
[5] = no glucose, mean ± SEM, read-out: GPa IC50 value
[6] = mean ± SEM, read-out: GPa inhibitory activity (%)
[7] = Table S2 summary of activities, read-out: IC50
[8] = 0 mM of glucose, read-out: GPa IC50 value
[9] = 5 mM of glucose, read-out: GPa IC50 value
[10] = 10 mM of glucose, read-out: GPa IC50 value

| SMILES | inhibition at 50 µM [1, 6] | further results |
| --- | --- | --- |
| CN(C)C(=O)[C@H](O)[C@H](Cc1ccccc1)NC(=O)c1cc2cc(Cl)ccc2[nH]1 [CP-91149, 5-chloro-N-[(1S,2R)-3-(dimethylamino)-2-hydroxy-3-oxo-1-(phenylmethyl)propyl]-1H-indole-2-carboxamide, reference compound] |  | IC50 [1, 5]: 0.58 ± 0.09 µM; IC50 ([2]; GPa IC50 value, 0 mM of glucose): 0.58 ± 0.09 µM; IC50 ([2]; GPa IC50 value, 5 mM of glucose): 0.39 ± 0.05 µM; IC50 ([2]; GPa IC50 value, 10 mM of glucose): 0.22 ± 0.04 µM |
| Oc1ccccc1-c1n[nH]cc1/C=C/c1ccccc1 [Compound 1] | < 30% |  |
| Oc1ccccc1-c1n[nH]cc1/C=C/c1ccc(Cl)cc1 [Compound 2] | < 30% |  |
| COc1ccc(/C=C/c2c[nH]nc2-c2ccccc2O)cc1 [Compound 3] | < 30% |  |
| Oc1ccccc1-c1n[nH]cc1/C=C/c1ccccc1C(F)(F)F [Compound 4] | < 30% |  |
| CCCCCCCCCCn1cc(/C=C/c2ccccc2)c(-c2ccccc2O)n1 [Compound 5] | < 30% |  |
| CCCCCCCCCCCCn1cc(/C=C/c2ccccc2)c(-c2ccccc2O)n1 [Compound 6] | < 30% |  |
| CCCCCCCCCCCCn1cc(/C=C/c2ccc(Cl)cc2)c(-c2ccccc2O)n1 [Compound 7] | < 30% |  |
| O=[N+]([O-])c1cccc(/C=C\c2c[nH]nc2-c2ccccc2O)c1 [Compound 8] | < 30% |  |
| COc1ccc(-c2n[nH]cc2/C=C\c2ccc([N+](=O)[O-])cc2)c(O)c1 [Compound 9] | < 30% |  |
| Oc1ccccc1-c1cc(/C=C/c2ccccc2)[nH]n1 [Compound 10] | < 30% |  |
| Oc1ccccc1-c1cc(/C=C/c2ccc(Cl)cc2)[nH]n1 [Compound 11] | < 30% |  |
| COc1ccc(/C=C/c2cc(-c3ccccc3O)nn2-c2ccccc2)cc1 [Compound 12] | < 30% |  |
| COc1ccc(/C=C/c2cc(-c3ccccc3O)nn2S(=O)(=O)c2ccc(C)cc2)cc1 [Compound 13] | < 30% |  |
| Cc1ccc(S(=O)(=O)Oc2ccccc2-c2cc(/C=C/c3ccccc3)n(S(=O)(=O)c3ccc(C)cc3)n2)cc1 [Compound 14] | < 30% |  |
| COc1ccc(/C=C/c2cc(-c3ccccc3OS(=O)(=O)c3ccc(C)cc3)nn2S(=O)(=O)c2ccc(C)cc2)cc1 [Compound 15] | < 30% |  |
| O=c1cc(/C=C/c2ccccc2)oc2cc(O)ccc12 [Compound 16] | < 30% |  |
| O=c1cc(/C=C/c2ccc(O)cc2)oc2cc(O)ccc12 [Compound 17] | < 30% |  |
| O=c1cc(/C=C/c2ccc(O)c(O)c2)oc2ccccc12 [Compound 18] | < 30% |  |
| O=c1cc(/C=C/c2ccc(O)c(O)c2)oc2cc(O)ccc12 [Compound 19] | < 30% |  |
| O=c1cc(/C=C/c2ccc(O)c(O)c2)oc2cccc(O)c12 [Compound 20] | < 30% |  |
| O=c1cc(/C=C/c2ccccc2)oc2cc(O)cc(O)c12 [Compound 21] | < 50% |  |
| O=c1cc(/C=C/c2ccc(O)cc2)oc2cc(O)cc(O)c12 [Compound 22] | < 50% |  |
| O=c1cc(/C=C/c2ccc(O)c(O)c2)oc2cc(O)cc(O)c12 [Compound 23] |  | IC50 [1, 5]: 31.7 ± 2.4 µM |
| O=c1c(O)c(/C=C/c2ccc(O)c(O)c2)oc2c(O)c(O)ccc12 [Compound 24] |  | IC50 [1, 7]: > 25 µM; inhibition at 25 µM ([1]; at 25 μM (highest concentration tested), mean ± SEM, read-out: GPa inhibitory activity (%)): 33.7 ± 6.5% |
| COc1cc(OC)c2c(=O)cc(/C=C/c3ccc(O)c(O)c3)oc2c1 [Compound 25] | < 30% |  |

| SMILES | inhibition at 50 µM [1, 6] | further results |
| --- | --- | --- |
| COc1cc(OC)c2c(=O)cc(/C=C/c3ccc(OC)c(OC)c3)oc2c1 [Compound 26] | 42.2 ± 5.6% |  |
| COc1ccc(/C=C/c2cc(=O)c3ccc(OC)c(OC)c3o2)cc1OC [Compound 27] | < 30% |  |
| COc1ccc2c(=O)cc(/C=C/c3ccc(OC)c(OC)c3)oc2c1 [Compound 28] | < 30% |  |
| COc1ccc(/C=C/c2cc(=O)c3c(OC)cccc3o2)cc1OC [Compound 29] | < 30% |  |
| O=c1cc(/C=C/C=C/c2ccc(O)c(O)c2)oc2ccccc12 [Compound 30] | < 30% |  |
| O=c1cc(/C=C/C=C/c2ccc(O)c(O)c2)oc2cccc(O)c12 [Compound 31] | < 30% |  |
| O=c1cc(/C=C/C=C/c2ccc(O)c(O)c2)oc2cc(O)ccc12 [Compound 32] |  | IC50 [1, 5]: 16.7 ± 1.5 µM; IC50 [2, 8]: 16.7 ± 1.5 µM; IC50 [2, 9]: 13.4 ± 1.6 µM; IC50 [2, 10]: 10.8 ± 1.2 µM |
| COc1cc(O)c2c(=O)cc(/C=C/C=C/c3ccc(O)c(O)c3)oc2c1 [Compound 33] |  | IC50 [1, 5]: 15.9 ± 1.1 µM; IC50 [2, 8]: 15.9 ± 1.1 µM; inhibition at 40 µM ([2]; 5 mM of glucose): 53.9 ± 2.5%; inhibition at 40 µM ([2]; 10 mM of glucose): < 30% |
| COc1ccc2c(=O)cc(/C=C/C=C/c3ccc(O)c(O)c3)oc2c1 [Compound 34] | 51.9 ± 1.8% |  |
| COc1ccc2c(=O)cc(/C=C/C=C/c3ccc(OC)c(OC)c3)oc2c1 [Compound 35] | 35.8 ± 4.6% |  |
| O=c1cc(-c2ccccc2)oc2cc(O)ccc12 [Compound 36] | < 30% |  |
| O=c1cc(-c2ccc(O)cc2)oc2cc(O)ccc12 [Compound 37] | < 30% |  |
| O=c1cc(-c2ccc(O)c(O)c2)oc2ccccc12 [Compound 39] | < 30% | IC50 [1, 7]: > 50 µM |
| O=c1cc(-c2ccc(O)c(O)c2)oc2cc(O)ccc12 [Compound 40] | < 30% | IC50 [1, 7]: > 50 µM |
| O=c1cc(-c2ccc(O)c(O)c2)oc2cccc(O)c12 [Compound 41] | < 30% | IC50 [1, 7]: > 50 µM |
| O=c1cc(-c2ccc(O)cc2)oc2cc(O)cc(O)c12 [Compound 42, Apigenin] | 35.7 ± 2.1% |  |
| O=c1cc(-c2ccc(O)c(O)c2)oc2cc(O)cc(O)c12 [Compound 43, Luteolin] | < 30% | IC50 [1, 7]: > 50 µM |
| O=c1c(O)c(-c2ccccc2)oc2cc(O)cc(O)c12 [Compound 44, Galangin] | < 30% |  |
| O=c1c(O)c(-c2ccc(O)c(O)c2)oc2cc(O)cc(O)c12 [Compound 45, Quercetin] | < 30% | IC50 [1, 7]: > 50 µM |
| O=c1cc(-c2ccccc2)oc2c(O)c(O)cc(O)c12 [Compound 46, Norwogonin] |  | IC50 [1, 5]: 13.2 ± 1.4 µM; IC50 [2, 8]: 13.2 ± 1.4 µM; IC50 [2, 9]: 8.9 ± 1 µM; IC50 [2, 10]: 3.7 ± 0.5 µM |
| O=c1cc(-c2ccccc2)oc2cc(O)c(O)c(O)c12 [Compound 47, Baicalein] |  | IC50 [1, 5]: 23.5 ± 2.9 µM; IC50 [3]: 10.2 ± 1.2 µM; IC50 [4]: 11.2 ± 1.5 µM |
| O=c1cc(-c2ccc(O)cc2)oc2cc(O)c(O)c(O)c12 [Compound 48, Scutellarein] | < 30% | IC50 [1, 7]: > 50 µM |
| O=C(O)[C@H]1O[C@@H](Oc2cc3oc(-c4ccccc4)cc(=O)c3c(O)c2O)[C@H](O)[C@@H](O)[C@@H]1O [Compound 49, Baicalin] |  | IC50 [1, 5]: 20.5 ± 2.5 µM |
| O=c1c(O)c(-c2ccc(O)c(O)c2)oc2cc(O)c(O)c(O)c12 [Compound 50, Quercetagetin] | < 30% | IC50 [1, 7]: > 50 µM |
| COc1cc2oc(-c3ccccc3)cc(=O)c2c(O)c1O [Compound 51, Baicalein-7-methylether] |  | IC50 [1, 5]: 22.6 ± 0.4 µM |
| COc1cc2oc(-c3ccccc3)cc(=O)c2c(OC)c1OC [Compound 52, Baicalein-5,6,7-trimethylether] | < 30% |  |
